Measured values from publication PMC2831097, “Inhibition of L-Arginine Metabolizing Enzymes by L-Arginine-Derived Advanced Glycation End Products” (Journal of Clinical Biochemistry and Nutrition, 2010).
Read-outs that look alike come from different tables or passages of the source.

Columns and labels:
[1] = molecular target: T1, dimethylarginine dimethylaminohydrolase (DDAH) (Rattus norvegicus, UniProt O08557); assay: DDAH activity assay, conversion of L-[3H]-NMMA to L-[3H]-citrulline by rat kidney homogenate; assay type: biochemical
T1 construct: from tissue; host or cells: rat kidney homogenate supernatant
Description: The DDAH activity was determined by monitoring the conversion of L-[4,5-^3H]-NMMA (American Radiolabeled Chemicals, Inc., St. Louis, MO) to L-[^3H]-citrulline as previously described. Rat kidney tissues (0.5 g) were homogenized in 1 ml of ice-cold 0.1 M sodium phosphate buffer (SPB, pH 6.5), and then centrifuged at 10,000 rpm for 5 min at 4°C. The supernatants were analyzed for protein content using a BCA protein reagent kit with bovine serum albumin as the standard. The supernatants were diluted with SPB to 1 mg protein in 50 µl, and then were added to a reaction mixture (a final volume of 100 µl) containing 0.1 M SPB (pH 6.5) and 0.1 µCi/ml of L-[^3H]-NMMA (specific activity: 1.48–2.96 TBq/mmol). After incubation for 1 h at 37°C, the reactions were terminated by keeping the tubes on ice for 5 min. Samples were then passed through a 1 ml column of Dowex AG50W-8X (Na^+-form) to remove unmetabolized L-[^3H]-NMMA. L-[^3H]-Citrulline was eluted twice with 1 ml of distilled water, and the eluted fractions mixed with 10 ml of cocktail (Ultima Gold XR) were quantified using a liquid scintillation counter. A reaction mixture containing L-[^3H]-NMMA in the absence of enzyme was added to the Dowex column to determine background counts. The effects of arginine derivatives on the enzyme activities in the presence and absence of the test compounds at various concentrations were examined.

[2] = molecular target: T2, recombinant eNOS (Bos taurus, UniProt P29473); assay: NOS activity assay, conversion of L-[14C(U)]-arginine to L-[14C(U)]-citrulline, eNOS; assay type: biochemical, bovine; conditions: 50 µM L-arginine, 30 min at 37°C, pH 7.4; means ± SD (n = 4)
T2 construct: purchased Sigma Chemicals (St. Louis, MO)
Text: (§1) L-Arginine, ADMA, N^G-hydroxy-L-arginine (NOHA), nicotinamide adenine dinucleotide phosphate reduced form (NADPH), flavin adenine dinucleotide (FAD), flavin mononucleotide (FMN), (6R)-5,6,7,8-tetrahydrobiopterin (BH4), recombinant eNOS (from bovine), iNOS (from mouse macrophage), Dowex® AG50W-X8 cation-exchange resin (mesh size, 100–200) were all purchased from Sigma Chemicals (St. Louis, MO). Ultima Gold XR scintillation liquid was from PerkinElmer (Shelton, CA). Recombinant nNOS (from rat) and N^G-hydroxy-nor-arginine (nor-NOHA) were obtained from Cayman Chemicals. Arginase (from bovine liver) was from Alexis Biochemicals (Lausen, Switzerland). […] All other chemicals were obtained from Wako Pure Chemical Industries, Osaka, Japan.
(§2) The NOS activities were determined by monitoring the conversion of L-[^14C(U)]-arginine (Moravek, Brea, CA) to L-[^14C(U)]-citrulline as previously described. Recombinant enzymes of three isoforms of NOS (specific activity: eNOS 0.03, nNOS 2.9, iNOS 0.62 units/mg protein) (10 µl) were added to a reaction mixture (final volume of 100 µl) consisting of 50 mM HEPES buffer (pH 7.4), 1 mM NADPH, 4 µM FAD, 4 µM FMN, 10 µM BH4, 1 mg/L calmodulin, 2.5 mM CaCl2, 50 µM L-arginine and 0.5 µCi/ml of L-[^14C(U)]-arginine (specific activity: 8.14–11.1 GBq/mmol). After incubation for 30 min at 37°C, the reactions were terminated by addition of 0.5 ml of 20 mM HEPES (pH 5.5) containing 2 mM EDTA and 2 mM EGTA. Samples were passed through a 1 ml column of Dowex AG50W-X8 (Na^+-form) to remove unconverted L-[^14C(U)]-arginine. L-[^14C(U)]-Citrulline was eluted twice with 1 ml of distilled water, and the eluted fractions mixed with 10 ml of cocktail (Ultima Gold XR) were quantified using a liquid scintillation counter. A reaction mixture containing L-[^14C(U)]-arginine without the enzyme was incubated as a control to determine background counts.

[3] = molecular target: T3, arginase (Bos taurus, UniProt Q2KJ64); assay: Arginase activity assay, conversion of L-[guanidine-14C]-arginine to [14C]-urea; assay type: biochemical, bovine; conditions: for IC50: 1 mM MnCl2, pH 9.6, 1 h at 37°C, means ± SD (n = 4); for inhibitory efficiency for arginase, fold weaker than NOHA: compared with NOHA (IC50 340 µM)
T3 construct: purchased Alexis Biochemicals (Lausen, Switzerland)
T3 sequence (Q2KJ64 1-322): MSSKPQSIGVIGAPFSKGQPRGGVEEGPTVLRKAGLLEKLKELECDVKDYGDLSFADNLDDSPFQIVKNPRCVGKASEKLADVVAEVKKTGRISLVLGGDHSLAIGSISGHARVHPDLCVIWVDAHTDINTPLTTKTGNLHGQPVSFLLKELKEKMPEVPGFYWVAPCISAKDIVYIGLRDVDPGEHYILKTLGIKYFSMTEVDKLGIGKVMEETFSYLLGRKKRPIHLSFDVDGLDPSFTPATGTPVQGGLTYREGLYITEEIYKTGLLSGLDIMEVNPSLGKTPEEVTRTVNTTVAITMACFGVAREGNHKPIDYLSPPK
Text: L-Arginine, ADMA, N^G-hydroxy-L-arginine (NOHA), nicotinamide adenine dinucleotide phosphate reduced form (NADPH), flavin adenine dinucleotide (FAD), flavin mononucleotide (FMN), (6R)-5,6,7,8-tetrahydrobiopterin (BH4), recombinant eNOS (from bovine), iNOS (from mouse macrophage), Dowex® AG50W-X8 cation-exchange resin (mesh size, 100–200) were all purchased from Sigma Chemicals (St. Louis, MO). Ultima Gold XR scintillation liquid was from PerkinElmer (Shelton, CA). Recombinant nNOS (from rat) and N^G-hydroxy-nor-arginine (nor-NOHA) were obtained from Cayman Chemicals. Arginase (from bovine liver) was from Alexis Biochemicals (Lausen, Switzerland). L-NMMA was from Calbiochem, Darmstadt, Germany. All other chemicals were obtained from Wako Pure Chemical Industries, Osaka, Japan.
Assays for arginase activity were performed by monitoring the conversion of L-[guanidine-^14C]-arginine (Moravek, Brea, CA) to [^14C]-urea as previously described. Recombinant arginase (0.5 µg of protein, specific activity: 0.094 units/mg protein) (10 µl) was added to a mixture (final volume of 100 µl) containing 10 mM Tris-HCl buffer, pH 9.6, 1 mM MnCl2, and 0.16 µCi/ml of L-[guanidine-^14C]-arginine (specific activity: 1.85–2.22 GBq/mmol). After incubation for 1 h at 37°C, the reactions were terminated by addition of 0.4 ml of stop buffer containing 250 mM sodium acetate and 100 mM urea, pH 4.5. Samples were then passed through a 1 ml column of Dowex AG50W-8X (Na^+-form) to remove unmetabolized L-[guanidine-^14C]-arginine. [^14C]-Urea was eluted twice with 1 ml of distilled water, and the eluted fractions mixed with 10 ml of cocktail (Ultima Gold XR) were quantified using a liquid scintillation counter. A reaction mixture containing L-[guanidine-^14C]-arginine in the absence of enzyme was incubated as a control to determine background counts. The inhibitory effects of arginase were examined in the presence and absence of the test compounds at various concentrations.

[4] = molecular target: T4, recombinant iNOS (Mus musculus, UniProt P29477); assay: NOS activity assay, conversion of L-[14C(U)]-arginine to L-[14C(U)]-citrulline, iNOS; assay type: biochemical; conditions: 50 µM L-arginine, 30 min at 37°C, pH 7.4; means ± SD (n = 4)
T4 construct: purchased Sigma Chemicals (St. Louis, MO)
Text: as §1, §2

[5] = molecular target: T5, recombinant nNOS (Rattus norvegicus, UniProt P29476); assay: NOS activity assay, conversion of L-[14C(U)]-arginine to L-[14C(U)]-citrulline, nNOS; assay type: biochemical; conditions: 50 µM L-arginine, 30 min at 37°C, pH 7.4; means ± SD (n = 4)
T5 construct: purchased Cayman Chemicals
Text: as §1, §2

[6] = rat kidney extracts, SPB pH 6.5, 1 h at 37°C, means ± SD (n = 4), read-out: IC50 DDAH

T1 sequence (O08557 whole entry): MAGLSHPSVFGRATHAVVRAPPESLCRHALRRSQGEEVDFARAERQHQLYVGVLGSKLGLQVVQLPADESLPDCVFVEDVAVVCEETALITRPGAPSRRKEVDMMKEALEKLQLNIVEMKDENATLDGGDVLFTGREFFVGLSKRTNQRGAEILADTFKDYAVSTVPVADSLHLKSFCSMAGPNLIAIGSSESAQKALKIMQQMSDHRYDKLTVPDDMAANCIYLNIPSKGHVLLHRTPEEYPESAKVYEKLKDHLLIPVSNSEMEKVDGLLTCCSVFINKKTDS

Compound | IC50 [1, 6] [µM] | IC50 [2] [µM] | IC50 [3] [µM] | IC50 [4] [µM] | IC50 [5] [µM] | inhibitory efficiency for arginase, fold weaker than NOHA [3] | IC50 [1] [µM]
CC1NC(NCCCC(N)C(=O)O)=NC1=O (stereo not shown) [MG-H1, N^δ-(5-hydro-5-methyl-4-imidazolon-2-yl)-ornithine] | > 5000 | 1280 ± 75 | > 5000 | 2970 ± 560 | 4170 ± 380 |  | 
NC(CCCCNCC(=O)O)C(=O)O (stereo not shown) [CML, carboxymethyl-lysine] | > 5000 | > 5000 | 1060 ± 60 | > 5000 | 1930 ± 300 | approximately 3 fold | 
CC(NC(=N)NCCCC(N)C(=O)O)C(=O)O (stereo not shown) [CEA, N^ω-carboxyethyl-arginine] |  | 3870 ± 680 | > 5000 | > 5000 | > 5000 |  | > 5000
CN(C)C(=N)NCCCC(N)C(=O)O [ADMA, asymmetric N^G,N^G-dimethyl-L-arginine, reference compound] |  | 16 ± 9 |  | 24 ± 1 | 23 |  | 
NC(=NCCCC(N)C(=O)O)NO [NOHA, N^G-hydroxy-L-arginine, reference compound] |  |  | 340 ± 12 |  |  |  | 
N=C(NCCCC(N)C(=O)O)NCC(=O)O (stereo not shown) [CMA, N^ω-Carboxymethyl-arginine] |  | 830 ± 36 | 1470 ± 120 | 1160 ± 40 | > 5000 | approximately 3 fold | > 5000
N=C(NO)NCC[C@H](N)C(=O)O [Nor-NOHA, N^G-hydroxy-nor-arginine, reference compound] |  |  | 230 ± 26 |  |  |  | 1770 ± 250
